Laboratory results: article PMC6261607, “Novel high–throughput myofibroblast assays identify agonists with therapeutic potential in pulmonary fibrosis that act via EP2 and EP4 receptors” (PLoS ONE, 2018)
Counter-ions that a name gives are not always drawn. Like-named read-outs stand apart in the source and are kept apart here.

Columns and labels:
[1] = test system: normal human lung fibroblasts (NHLF); assay: Phenotypic high-content assay (HCA) of TGF–β1–induced fibroblast–to–myofibroblast differentiation; format: cell-based; settings: for IC50: read-out: HCA IC50; for inhibition at 10 µM: read-out: Effect HCA at 10 µM [% inhibition]
Description: (§1) The plate was washed 3 times with starvation medium, e.g. fibroblast basal medium (FBM, Lonza) supplemented with 0.1% faf BSA, 100 units / ml of penicillin and 100 μg / ml of streptomycin and 250 ng / ml amphotericin B, and then starved for 24 h in 30 μl volume. NHLF were differentiated into myofibroblasts by incubation with 5 ng / ml TGF–β1 (from a stock of 20 μg / ml in 4 mM HCl, 1 mg / ml BSA) for 48 h. Compounds were prepared as 5x stocks in starvation medium and added to the starved cells to a final 1x concentration concomitant with TGF–β1 addition. The final DMSO concentration in the assay was 0.6% in all wells. 48 h after TGF–β1 addition, the medium was removed and the cells were fixed in methanol for 10 min at room temperature (RT). After fixation, cells were washed 3 times with 1 x PBS and either stored at 4°C for up to 3 days or further processed. […] Images were acquired on the Opera Phenix confocal high–content screening system (Perkin Elmer) using the 20–x water immersion lens.
(§2) DAPI stained nuclei were used to identify cells. α–SMA and FN regions were then identified and mapped to the corresponding nuclei for background correction, cell segmentation and cell feature computation to identify, classify and weigh over 400 features per cell. The computed features (S1 Table) comprise, but are not limited to, granularity, intensity, texture, area, shape and solidity of a cell in both α–SMA–and FN–expressing regions. The 0% compound effect (5 ng / ml TGF–β1) and the 100% compound effect (0 ng / ml TGF–β1) controls, were used to train and validate a support vector machine (SVM), a supervised learning model with associated learning algorithm that, once successfully validated, was applied to every cell in every well of the assayed microtiter plate. The SVM allowed autonomous weighting and classification of the characteristics and thus enabled the classifier to decide which characteristics were most relevant for the differentiation of the cell types. […] The classification of each cell was aggregated to a cell type ratio per well, represented as the computed percentage effect value per well indicative of the degree of myofibroblast differentiation. E.g. 100% equals complete myofibroblast differentiation, 0% indicates a pure fibroblast population without any signs of differentiation.

[2] = test system: normal human lung fibroblasts (NHLF); assay: Nuclear count in the HCA, standard assay; format: cell-based; settings: read-out: Nuclear count IC50
Description: as §1, §2

NHLF cells = assay: RealTime–Glo MT viability assay
Description: The effect of compounds on cell viability was assessed by quantifying the relative metabolic activity of cells using the non–lytic luminescence–based RealTime–Glo™ MT cell viability assay (Promega) according to the manufacturer’s instructions.

[3] = Homo sapiens, Fibroblast, 48 h, NHLF, 5 ng/ml TGF–β1 for 48 h, compound added with TGF–β1, mean ± SD
[4] = Homo sapiens, Fibroblast, 10 µM compound, 5 ng/ml TGF–β1, 48 h
[5] = Homo sapiens, Fibroblast, 48 h, standard HCA, NHLF, 5 ng/ml TGF–β1, 48 h
[6] = 10 µM compound, 5 ng/ml TGF–β1, 48 h
[7] = NHLF, 5 ng/ml TGF–β1 for 48 h, compound added with TGF–β1, mean ± SD
[8] = standard HCA, NHLF, 5 ng/ml TGF–β1, 48 h

| Structure (SMILES) | IC50 [1, 3] [µM] | inhibition at 10 µM [1, 4] [%] | IC50 [2, 5] [µM] | Effect on viability at 10 µM [% reduction] (NHLF cells; 10 µM compound) | Effect on viability at 10 µM [% reduction] (NHLF cells; human, 10 µM) | further results |
| --- | --- | --- | --- | --- | --- | --- |
| Nc1c2ccccc2nc2ccccc12 [Aminacrine] | 6 | 97 | 24 | 2 % reduction | – | – |
| COc1ccc(CCN2CCC(Nc3nc4ccccc4n3Cc3ccc(F)cc3)CC2)cc1 [Astemizole] | – | 105 | 8.3 | – | 49 % reduction | – |
| Nc1ncn(C2OC(CO)C(O)C2O)c(=O)n1 (centres unmarked) [Azacytidine–5] | – | – | – | – | – | Effect HCA at 10 µM [% inhibition] [1, 6]: 97 % inhibition; IC50 [1, 7]: 3.2 µM; IC50 [2, 8]: > 25 µM; Effect on viability at 10 µM [% reduction] (NHLF cells): –4 % reduction |
| Cc1c(-c2ccc(O)cc2)n(Cc2ccc(OCCN3CCCCCC3)cc2)c2ccc(O)cc12.Cl [Bazedoxifene HCl] | – | – | – | – | – | Effect on viability at 10 µM [% reduction] (NHLF cells): 55 % reduction |
| CC(C)(C)CC(C)(C)c1ccc(OCCOCC[N+](C)(C)Cc2ccccc2)cc1 [Benzethonium chloride] | – | – | – | 72 % reduction | – | – |
| CC[C@@]1(O)C(=O)OCc2c1cc1n(c2=O)Cc2cc3ccccc3nc2-1 [Camptothecine (S+)] | – | – | – | 5 % reduction | – | Effect HCA at 10 µM [% inhibition] [1, 6]: 105 % inhibition; IC50 [1, 7]: 0.041 µM; IC50 [2, 8]: > 25 µM |
| CC(C)C[C@H](NC(=O)[C@H](CCc1ccccc1)NC(=O)CN1CCOCC1)C(=O)N[C@@H](Cc1ccccc1)C(=O)N[C@@H](CC(C)C)C(=O)[C@@]1(C)CO1 [Carfilzomib (PR–171), Carfilzomib] | 0.004 | 100 | – | – | 52 % reduction | – |
| [H]/N=C(\N/C(=N/[H])NCCCCCCNC(=N)NC(=N)Nc1ccc(Cl)cc1)Nc1ccc(Cl)cc1 [Chlorhexidine] | 5.8 | 80 | – | – | 24 % reduction | – |
| Oc1c(Cl)cc(Cl)c2cccnc12 [Chloroxine] | 5.9 | 80 | > 25 | – | 14 % reduction | – |
| COCCOC(=O)C1=C(C)NC(C)=C(C(=O)OC/C=C/c2ccccc2)C1c1cccc([N+](=O)[O-])c1 (centres unmarked) [Cilnidipine] | 8.04 | 92 | > 25 | 15 % reduction | – | – |
| C[C@@H](Oc1cc(-c2cnn(C3CCNCC3)c2)cnc1N)c1c(Cl)ccc(F)c1Cl [Crizotinib (PF–02341066), Crizotinib] | 1.5 | 63 | 16 | 66 % reduction | – | – |
| C[C@@H]1C[C@@H]([C@H](O)CC2CC(=O)NC(=O)C2)C(=O)[C@@H](C)C1 [Cycloheximide] | – | – | – | 27 % reduction | – | inhibition at 10 µM ([1]; Homo sapiens, Fibroblast, 48 h): 91%; IC50 ([1]; Homo sapiens, Fibroblast, 48 h): 0.109 µM; IC50 ([2]; Homo sapiens, Fibroblast, 48 h): > 25 µM |
| CC(C)(C)c1nc(-c2cccc(NS(=O)(=O)c3c(F)cccc3F)c2F)c(-c2ccnc(N)n2)s1 [Dabrafenib (GSK2118436), Dabrafenib] | 2.9 | 56 | > 25 | 9 % reduction | – | – |
| Cc1nc(Nc2ncc(C(=O)Nc3c(C)cccc3Cl)s2)cc(N2CCN(CCO)CC2)n1 [Dasatinib (BMS–354825), Dasatinib] | 1.02 | 89 | > 25 | – | –10 % reduction | – |
| COc1cccc2c1C(=O)c1c(O)c3c(c(O)c1C2=O)C[C@@](O)(C(C)=O)C[C@@H]3O[C@H]1C[C@H](N)[C@H](O)[C@H](C)O1 [Daunorubicin hydrochloride] | – | – | – | – | 14 % reduction | inhibition at 10 µM ([1]; Homo sapiens, Fibroblast, 48 h): 73%; IC50 ([1]; Homo sapiens, Fibroblast, 48 h): 0.27 µM |
| Cc1cc(N)c2ccccc2[n+]1CCCCCCCCCC[n+]1c(C)cc(N)c2ccccc21 [Dequalinium dichloride] | 5.8 | 67 | > 25 | – | 39 % reduction | – |

| Structure (SMILES) | IC50 [1, 3] [µM] | inhibition at 10 µM [1, 4] [%] | IC50 [2, 5] [µM] | Effect on viability at 10 µM [% reduction] (NHLF cells; 10 µM compound) | Effect on viability at 10 µM [% reduction] (NHLF cells; human, 10 µM) | further results |
| --- | --- | --- | --- | --- | --- | --- |
| C[C@]12CC[C@H](O)C[C@H]1CC[C@@H]1[C@@H]2CC[C@]2(C)[C@@H](C3=CC(=O)OC3)CC[C@]12O [Digitoxigenin] | – | – | – | 22 % reduction | – | inhibition at 10 µM ([1]; Homo sapiens, Fibroblast, 48 h): 93%; IC50 ([1]; Homo sapiens, Fibroblast, 48 h): 0.039 µM; IC50 ([2]; Homo sapiens, Fibroblast, 48 h): > 25 µM |
| C[C@H]1O[C@@H](O[C@H]2[C@@H](O)C[C@H](O[C@H]3[C@@H](O)C[C@H](O[C@H]4CC[C@@]5(C)[C@H](CC[C@@H]6[C@@H]5C[C@@H](O)[C@]5(C)[C@@H](C7=CC(=O)OC7)CC[C@]65O)C4)O[C@@H]3C)O[C@@H]2C)C[C@H](O)[C@@H]1O [Digoxin] | – | – | – | – | 19 % reduction | inhibition at 10 µM ([1]; Homo sapiens, Fibroblast, 48 h): 87%; IC50 ([1]; Homo sapiens, Fibroblast, 48 h): 0.01 µM; IC50 ([2]; Homo sapiens, Fibroblast, 48 h): > 25 µM |
| COc1cccc2c1C(=O)c1c(O)c3c(c(O)c1C2=O)C[C@@](O)(C(=O)CO)C[C@@H]3O[C@H]1C[C@H](N)[C@H](O)[C@H](C)O1 [Doxorubicin hydrochloride] | 0.45 | 64 | > 25 | – | 20 % reduction | – |
| CC[C@H]1CN2CCc3cc(OC)c(OC)cc3[C@@H]2C[C@@H]1C[C@H]1NCCc2cc(OC)c(OC)cc21 [Emetine] | 0.071 | 100 | > 25 | 25 % reduction | – | – |
| COc1cccc2c1C(=O)c1c(O)c3c(c(O)c1C2=O)C[C@@](O)(C(=O)CO)C[C@@H]3O[C@H]1C[C@H](N)[C@@H](O)[C@H](C)O1 [Epirubicin hydrochloride] | 1.07 | 93 | – | – | 28 % reduction | – |
| CCCCC(=O)O[C@H]1CC[C@H]2[C@@H]3CCc4cc(O)ccc4[C@H]3CC[C@]12C [Estradiol Valerate] | 9.7 | 66 | 11 | – | 65 % reduction | – |
| CCOc1ccc2nc3cc(N)ccc3c(N)c2c1 [Ethacridine lactate monohydrate] | 7.5 | 73 | > 25 | –9 % reduction | – | – |
| Cc1cc(C#N)cc(C)c1Oc1nc(Nc2ccc(C#N)cc2)nc(N)c1Br [Etravirine (TMC125), Etravirine] | 3.9 | 100 | > 25 | 29 % reduction | – | – |
| COC(=O)Nc1nc2ccc(Sc3ccccc3)cc2[nH]1 [Fenbendazole] | 6.7 | 76 | 5.8 | – | 51 % reduction | – |
| Cl.Cl.Fc1ccc(C(OCCN2CCN(CCCc3ccccc3)CC2)c2ccc(F)cc2)cc1 [GBR 12909 dihydrochloride] | – | – | – | – | – | Effect HCA at 10 µM [% inhibition] [1, 6]: 56 % inhibition; IC50 [1, 7]: 9.9 µM; Effect on viability at 10 µM [% reduction] (NHLF cells): 13 % reduction |
| CCCCN(CCCC)CCC(O)c1cc2c(Cl)cc(Cl)cc2c2cc(C(F)(F)F)ccc12 (centres unmarked) [Halofantrine hydrochloride] | 6.02 | 101 | 5.2 | 29 % reduction | – | – |
| Oc1c(Cl)cc(Cl)c(Cl)c1Cc1c(O)c(Cl)cc(Cl)c1Cl [Hexachlorophene] | – | – | – | – | – | inhibition at 10 µM ([1]; Homo sapiens, Fibroblast, 48 h): 93%; IC50 ([1]; Homo sapiens, Fibroblast, 48 h): 6.7 µM; IC50 ([2]; Homo sapiens, Fibroblast, 48 h): > 25 µM |
| CN[C@@H]1C[C@@H](c2ccc(Cl)c(Cl)c2)c2ccccc21 [Indatraline hydrochloride] | – | 67 | – | 20 % reduction | – | IC50 ([1]; Homo sapiens, Fibroblast, NHLF, 5 ng/ml TGF–β1 for 48 h, compound added with TGF–β1, mean ± SD): 8.06 µM |
| O=C1c2c(O)ccc(O)c2C(=O)c2c(NCCNCCO)ccc(NCCNCCO)c21 [Mitoxantrone dihydrochloride] | 0.62 | 101 | – | – | 31 % reduction | – |
| C=CC(=O)N1CCC[C@@H](n2nc(-c3ccc(Oc4ccccc4)cc3)c3c(N)ncnc32)C1 [PCI–32765 (Ibrutinib), Ibrutinib] | – | – | – | – | 22 % reduction | – |
| O=C(CCCCCCC(=O)Nc1ccccc1)NO [Vorinostat] | – | – | – | 24 % reduction | – | – |
